From patent US20100248377A1, “DETECTION OF CONTRAST MEDIUM-INDUCED NEPHROTOXICITY” (priority 2007, published 2010)

Legend:
Assay type in all cases: in vivo, human
[1] = system: urotensin II (urine); experiment: Example 2 study, 20 PCTA subjects, urine urotensin II after contrast medium; details: for Urotensin II, median: urine, n = 20, t = 0 h value 1.18
Method: (§1) In a different study, the effect of the administration of the contrast medium lobitridol (Xenetix, Xen 350) on the urine level of creatinine, urotensin II, total adiponectin and L-FABP in samples obtained from 20 subjects which underwent percutaneous transluminal coronary angioplasty (PCTA) was analyzed. Samples were obtained prior to the administration of the contrast medium (t=0 h), four hours after administration of the contrast medium (t=4 h), as well as 24 hours after administration of the contrast medium.

[2] = system: urotensin II (urine); experiment: Dose response analysis, urotensin II in urine of PCTA patients after contrast medium; details: 24 h after vs before administration; six patients, 50-350 ml
Method: (§2) The effect of the administration of various amounts of the contrast medium Iobitridol (Xenetix, Xen 350) on the level of creatinine, urotensin II, total adiponectin and L-FABP in urine samples obtained from subjects which underwent percutaneous transluminal coronary angioplasty (PCTA) was analysed. All six patients examined in this study had no apparent renal disorder indicated by a serum creatinine level of less than 1.2 mg/dl (before PCTA). Each patient received a different amount of the contrast medium (50 ml, 80 ml, 100 ml, 150 ml, 220 ml and 350 ml, respectively). The urinary levels of creatinine, urotensin II, total adiponectin and L-FABP were determined in samples that were obtained prior to the administration of different volumes of the contrast medium (time point 0) and 24 h after the administration of the contrast medium. […] The results are normalized to the urinary creatinine concentration. From the data it clearly can be seen that a high dose of an administered contrast medium leads to a significant increase of adiponectin and L-FABP.

[3] = system: urotensin II (urine); experiment: Example 3 case, coronary angiography, urine urotensin II; details: person, 350 ml, 24 hours after administration; before 1.2
Method: (§3) In order to examine whether the chest pain is caused by a coronary artery disease, a coronary angiography is initiated. A serum sample is obtained from the patient prior to the angiography and the amount of creatinine is determined in a serum sample (0.9 mg/dl). Moreover, in a urine sample HMW adiponectin, urotensin II and L-FABP are determined (adiponectin 0.92 μg/g Creatinine; L-FABP 7 μg/g Creatinine; Urotensin II: 1.2 μg/g Creatinine).
(§4) For coronary angiography 350 ml Xen350 are administered to the patient as a contrast medium. After successful coronary angiography, the patient is monitored for 24 hours. Moreover, creatinine (serum level: 1 mg/dl), adiponectin, L-FABP and urotensin II are determined again after 24 hours after the administration of the contrast medium (urine level: adiponectin 1.55 μg/g Creatinine; L-FABP 21 μg/g Creatinine; Urotensin II: 6 μg/g Creatinine).

[4] = system: serum creatinine; experiment: Example 3 case, coronary angiography, serum creatinine and renal outcome; details: person, 350 ml
Method: as §3, §4

[5] = system: creatinine (urine); experiment: Dose response analysis, creatinine in urine of PCTA patients after contrast medium; details: 24 h after vs before administration; six patients, 50-350 ml
Method: as §2

[6] = system: total adiponectin (urine); experiment: Example 2 study, 20 PCTA subjects, urine total adiponectin after contrast medium; details: n = 20, t = 0 h value 0.66
Method: as §1

[7] = system: total adiponectin (urine); experiment: Dose response analysis, total adiponectin in urine of PCTA patients after contrast medium; details: for Adiponectin Changes: 24 h vs 0 h; for 24 h Adiponectin: urine
Method: as §2

[8] = system: creatinine (urine); experiment: Example 2 study, 20 PCTA subjects, urine creatinine after contrast medium; details: n = 20, t = 0 h value 0.75
Method: as §1

[9] = system: L-FABP (urine); experiment: Example 2 study, 20 PCTA subjects, urine L-FABP after contrast medium; details: for L-FABP, median: urine, n = 20, t = 0 h value 13.44
Method: as §1

[10] = system: HMW adiponectin (urine); experiment: Example 3 case, coronary angiography, urine HMW adiponectin; details: person, 350 ml, 24 hours after administration; before 0.92
Method: as §3, §4

[11] = system: L-FABP (urine); experiment: Example 3 case, coronary angiography, urine L-FABP; details: person, 350 ml, 24 hours after administration; before 7
Method: as §3, §4

[12] = system: L-FABP (urine); experiment: Dose response analysis, L-FABP in urine of PCTA patients after contrast medium; details: for L-FABP Changes: 24 h vs 0 h; for 24 h L-FABP: urine
Method: as §2

[13] = 24 h after vs before administration, six patients, 50-350 ml

## CN(CC(O)CO)C(=O)c1c(I)c(NC(=O)C(CO)CO)c(I)c(C(=O)N(C)CC(O)CO)c1I (centres unmarked) [Xen350, Iobitridol]
[1]; Table 3 Patient 1, t = 4 h, t = 0 h value 832
  Urotensin II: 999 pg/mL
[1]; Table 3 Patient 1, t = 24 h, t = 0 h value 832
  Urotensin II: 2591 pg/mL
[1]; Table 3 Patient 2, t = 4 h, t = 0 h value 1043
  Urotensin II: 1131 pg/mL
[1]; Table 3 Patient 2, t = 24 h, t = 0 h value 1043
  Urotensin II: 39441 pg/mL
[1]; t = 4 h
  Urotensin II, median: 1.23 μg/g Creatinine
[1]; t = 24 h
  Urotensin II, median: 1.77 μg/g Creatinine
[2]
  increase of median urotensin II in urine: 350%
[3]
  Urotensin II urine level: 6 μg/g Creatinine
[4]; 24 hours after administration, before 0.9
  creatinine serum level: 1 mg/dL
[4]; after two more days (after the 24 h monitoring)
  serum creatinine level: 2.5 mg/dL
[4]; after two more days, significantly reduced urine excretion
  renal outcome diagnosed: acute renal failure
[5]
  increase of median creatinine in urine: 41%
[6]; t = 4 h
  Adiponectin, median: 0.89 μg/g Creatinine
[6]; t = 24 h
  Adiponectin, median: 1.09 μg/g Creatinine
[7]; [13]
  increase of median adiponectin in urine: 400%
[7]; Patient 1, 50 ml
  Adiponectin Changes: −88%
[7]; Patient 1, 50 ml, 0 h value 0.92
  24 h Adiponectin: 0.11 ug/g Crea
[7]; Patient 2, 80 ml
  Adiponectin Changes: −22%
[7]; Patient 2, 80 ml, 0 h value 2.99
  24 h Adiponectin: 2.34 ug/g Crea
[7]; Patient 3, 100 ml
  Adiponectin Changes: −44%
[7]; Patient 3, 100 ml, 0 h value 2.68
  24 h Adiponectin: 1.49 ug/g Crea
[7]; Patient 4, 150 ml
  Adiponectin Changes: −91%
[7]; Patient 4, 150 ml, 0 h value 0.32
  24 h Adiponectin: 0.03 ug/g Crea
[7]; Patient 5, 220 ml
  Adiponectin Changes: 897%
[7]; Patient 5, 220 ml, 0 h value 0.41
  24 h Adiponectin: 3.68 ug/g Crea
[7]; Patient 6, 350 ml
  Adiponectin Changes: 690%
[7]; Patient 6, 350 ml, 0 h value 0.1
  24 h Adiponectin: 0.69 ug/g Crea
[8]; t = 4 h
  Creatinine, median: 0.45 g/L
[8]; t = 24 h
  Creatinine, median: 1.05 g/L
[9]; Table 3 Patient 1, t = 4 h, t = 0 h value 12
  L-FABP: 6 μg/g Creatinine
[9]; Table 3 Patient 1, t = 24 h, t = 0 h value 12
  L-FABP: 26 μg/g Creatinine
[9]; Table 3 Patient 2, t = 4 h, t = 0 h value 5
  L-FABP: 6 μg/g Creatinine
[9]; Table 3 Patient 2, t = 24 h, t = 0 h value 5
  L-FABP: 33 μg/g Creatinine
[9]; t = 4 h
  L-FABP, median: 12.16 μg/g Creatinine
[9]; t = 24 h
  L-FABP, median: 26.03 μg/g Creatinine
[10]
  adiponectin urine level: 1.55 μg/g Creatinine
[11]
  L-FABP urine level: 21 μg/g Creatinine
[12]; [13]
  increase of median L-FABP in urine: 415%
[12]; Patient 1, 50 ml
  L-FABP Changes: −45%
[12]; Patient 1, 50 ml, 0 h value 20.19
  24 h L-FABP: 11.17 ug/g Crea
[12]; Patient 2, 80 ml
  L-FABP Changes: 49%
[12]; Patient 2, 80 ml, 0 h value 42.71
  24 h L-FABP: 63.48 ug/g Crea
[12]; Patient 3, 100 ml
  L-FABP Changes: 40%
[12]; Patient 3, 100 ml, 0 h value 13.77
  24 h L-FABP: 19.33 ug/g Crea
[12]; Patient 4, 150 ml
  L-FABP Changes: 481%
[12]; Patient 4, 150 ml, 0 h value 6.8
  24 h L-FABP: 32.74 ug/g Crea
[12]; Patient 5, 220 ml
  L-FABP Changes: 544%
[12]; Patient 5, 220 ml, 0 h value 13.1
  24 h L-FABP: 71.23 ug/g Crea
[12]; Patient 6, 350 ml
  L-FABP Changes: 406%
[12]; Patient 6, 350 ml, 0 h value 4.36
  24 h L-FABP: 17.71 ug/g Crea
